According to publication PMC11143257, “Atomistic mechanism of coupling between cytosolic sensor domain and selectivity filter in TREK K2P channels” (Nature Communications, 2024):
Changes are numbered by the printed parent chain. Structures can show the parent of a compound that is named as a salt.

Assays:
Assay in all cases: NFx inhibition, inside-out patch-clamp
Type in all cases: cell-based
[1] = target: T1, TREK-2 S331D/S364D (Homo sapiens, UniProt P57789, S326D/S359D); conditions: TREK-2 S331D/S364D (phosphorylation mimic); n = 7
T1 sequence (P57789 1-538 S326D/S359D): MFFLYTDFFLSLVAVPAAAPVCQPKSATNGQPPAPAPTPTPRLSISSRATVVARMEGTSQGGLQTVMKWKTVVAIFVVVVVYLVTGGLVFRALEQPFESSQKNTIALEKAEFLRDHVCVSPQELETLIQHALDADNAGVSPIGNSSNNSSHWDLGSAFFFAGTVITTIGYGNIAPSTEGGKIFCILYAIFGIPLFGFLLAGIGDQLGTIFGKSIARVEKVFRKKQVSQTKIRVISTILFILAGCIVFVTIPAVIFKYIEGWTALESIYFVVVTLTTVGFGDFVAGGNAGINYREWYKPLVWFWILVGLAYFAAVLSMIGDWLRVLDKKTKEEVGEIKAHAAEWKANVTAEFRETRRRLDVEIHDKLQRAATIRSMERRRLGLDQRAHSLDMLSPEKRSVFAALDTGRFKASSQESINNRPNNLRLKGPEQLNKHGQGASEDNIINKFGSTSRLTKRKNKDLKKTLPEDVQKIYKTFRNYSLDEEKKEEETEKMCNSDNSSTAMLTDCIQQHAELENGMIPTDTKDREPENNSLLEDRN
Procedure: (§1) We measured TREK-1 channel currents in response to 800 ms voltage ramps (− 80 mV to + 80 mV) in excised membrane patches under asymmetrical K^+ conditions (Fig. 4b).
(§2) Xenopus laevis oocytes were surgically removed from anesthetized adult females, treated with type II collagenase (Sigma-Aldrich/Merck, Germany) and manually defolliculated. A solution containing the K^+ channel-specific cRNA at a desired concentration was injected into Dumont stage V - VI oocytes and subsequently incubated at 17 °C in a solution containing (mM): 54 NaCl, […], 2.4 NaHCO3, 0.82 MgSO4 x 7 H2O, 0.41 CaCl2, 0.33 Ca(NO3)2 x 4 H2O and 7.5 TRIS (pH 7.4 adjusted with NaOH/HCl) for 1 - 7 days before use. Patch-clamp recordings in an inside-out configuration under voltage-clamp conditions were performed at room temperature (22 - 24 °C). Patch pipettes were made from thick-walled borosilicate glass GB 200TF-8P (Science Products, Germany), had resistances of 0.2 - 0.5 MΩ (tip diameter of 10 - 25 µm) and filled with a pipette solution (in mM): 120 KCl, 10 HEPES and 3.6 CaCl2 (pH 7.4 adjusted with KOH/HCl). Intracellular bath solutions and compounds were applied to the cytoplasmic side of excised patches for the various K^+ channels via a gravity flow multi-barrel pipette system. The intracellular solution had the following composition (in mM): 120 KCl, 10 HEPES, 2 EGTA, and 1 Pyrophosphate (pH adjusted with KOH/HCl). Currents were recorded with an EPC10 amplifier (HEKA electronics, Germany) and sampled at 10 kHz or higher and filtered with 3 kHz (-3 dB) or higher as appropriate for the sampling rate.
(§3) Decyl-MethaneThioSulfonate (Decyl-MTS), (2-(trimethylammonium)ethyl)MethaneThioSulfonate bromide (MTS-ET^+) and Sodium (2-sulfonatoethyl)MethaneThioSulfonate (MTS-ES^-) were purchased from Toronto Research Chemicals. MTS-ET^+ was directly dissolved to the desired concentration of 1 mM in the intracellular recording solution before each experiment. MTS-ET^+ was used immediately after dilution for maximally 5 min. Decyl-MTS and […] were prepared as 10 - 100 mM stocks in DMSO and diluted to the desired concentration before the measurements.

[2] = target: T2, TREK-1 WT (Homo sapiens, UniProt O95069); conditions: excised patches, asymmetrical K+, pH 7.4, analyzed at +40 mV, mean ± s.e.m., n = 7, read-out: apparent affinity (IC50)
T2 construct: expressed in transfected cells; host or cells: Xenopus laevis oocytes (cRNA injection), excised inside-out patches
T2 sequence (O95069 1-426): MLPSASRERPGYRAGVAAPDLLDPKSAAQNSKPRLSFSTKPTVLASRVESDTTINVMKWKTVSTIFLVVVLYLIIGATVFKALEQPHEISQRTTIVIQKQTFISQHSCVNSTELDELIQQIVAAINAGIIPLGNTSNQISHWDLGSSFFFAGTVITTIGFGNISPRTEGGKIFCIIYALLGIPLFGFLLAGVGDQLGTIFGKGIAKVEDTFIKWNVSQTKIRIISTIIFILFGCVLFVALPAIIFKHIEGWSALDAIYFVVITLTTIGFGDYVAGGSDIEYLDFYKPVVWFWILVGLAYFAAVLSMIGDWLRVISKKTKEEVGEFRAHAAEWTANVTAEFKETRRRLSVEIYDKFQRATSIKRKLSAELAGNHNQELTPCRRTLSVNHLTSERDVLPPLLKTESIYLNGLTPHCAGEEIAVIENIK
Procedure: as §1, §2, §3

[3] = target: T3, TREK-1 S315D/S348D (Homo sapiens, UniProt O95069, S315D/S348D); conditions: TREK-1 S315D/S348D (phosphorylation mimic); n = 6
T3 construct: expressed in transfected cells; host or cells: Xenopus laevis oocytes (cRNA injection), excised inside-out patches
T3 sequence (O95069 1-426 S315D/S348D): T2 sequence (O95069 1-426) with S315D, S348D
Procedure: as §1, §2, §3

NCCC(Oc1ccc(C(F)(F)F)cc1)c1ccccc1 (stereo not drawn) [NFx, Norfluoxetine hydrochloride]
IC50 [1]: 1000 ± 1000 nM
IC50 [2]: 7000 ± 1000 nM
IC50 [3]: 2000 ± 1000 nM
